Patent US6441026B1, “Antitumor compositions containing taxane derivatives” (priority 1995, dated 2002)
Read-outs that look alike come from different tables or passages of the source.

Tests used:
[1] = test system: Colon 51; conditions: for Responses TFS (tumor free survivors): on day 122
Protocol: (§1) log10 cells killed=T−C(days)/3.32×Td
(§2) The animals are autopsied when sacrificed.
(§3) The tumor model used to evaluate each drug combination was selected, in general, on the basis of its responsiveness to each of the agents when used as monotherapy. Using i.v. intermittent schedules, full dose response trials were conducted for each single agent and each combination.
(§4) In addition to the parameters described above, the combination toxicity index (CTI) was determined. […] Rep. 66: 1187-1200 (1982). […] It indicates the extent in host toxicity overlap.

[2] = test system: C38 colon adenocarcinoma; conditions: optimum dose, i.v., days 21,25,29,33: Taxotere 22 mg/kg/inj; 5-fluorouracil 43.4; combination Taxotere 17.6 + 5-fluorouracil 27.0 (simultaneous)
Description: as §1, §2

[3] = test system: MA13/c mammary adenocarcinoma; conditions: optimum dose, i.v.: Taxotere 15 mg/kg/inj days 14,17,20; cyclophosphamide 118 mg/kg day 14; combination Taxotere 7.5 + cyclophosphamide 90.0 mg/kg/inj
Protocol: This efficacy may be quantified, for example, by the log10 cells killed, which is determined according to the following formula:
A product is considered to be active if log10 cells killed is greater than or equal to 0.7. A product is considered to be very active if log10 cells killed is greater than 2.8.
The combination, used at its own maximum tolerated dose, in which each of the constituents will be present at a dose generally not exceeding its maximum tolerated dose, will manifest therapeutic synergy when the log10 cells killed is greater than the value of the log10 cells killed of the best constituent when it is administered alone.
The efficacy of the combinations on solid tumors may be determined experimentally in the following manner:
The animals subjected to the experiment, generally mice, are subcutaneously grafted bilaterally with 30 to 60 mg of a tumor fragment on day 0. The animals bearing tumors are mixed before being subjected to the various treatments and controls. […]
The tumors are measured 2 or 3 times a week until the tumor reaches approximately 2 g, or until the animal dies if this occurs before the tumor reaches 2 g. […]
The antitumor activity is determined in accordance with the different parameters recorded.

[4] = test system: MA13/C; conditions: mouse, in vivo
Protocol: as §1, §2, §3, §4

[5] = test system: MA 17/C; conditions: mouse, in vivo, iv, 40.3 mg/kg
Protocol: as §1, §2, §3, §4

[6] = CPT-11 trial: CPT-11 PO 42.5 mg/kg/inj 5,9 2x/d, acetocyclopropyl taxotere IV 21.1 days 5,9, combination 21.0 + 11.9 simult.
[7] = cisplatin trial, days 5,12: acetocyclopropyl taxotere 30.0 mg/kg/inj IV, cisplatinum 3.1, combination 13.6 + 2.0 simult.

## CCc1c2c(nc3ccc(OC(=O)N4CCC(N5CCCCC5)CC4)cc13)-c1cc3c(c(=O)n1C2)COC(=O)[C@]3(O)CC [CPT-11]
[1]; [6]
  % bwl loss at nadir: 3.7%
  T/C %: 0%
  day of nadir (body weight loss): (7) day
[1]; CPT-11 trial: CPT-11 PO 42.5 mg/kg/inj 5,9 2x/d, acetocyclopropyl taxotere IV 21.1 days 5,9, combination 21.0 + 11.9 simult., Td = 2 days
  log cell kill: 1.1

## CC(=O)O[C@@]12CO[C@@H]1C[C@H](O)[C@@]1(C)C(=O)[C@H](O)C3=C(C)[C@@H](OC(=O)[C@H](O)[C@@H](NC(=O)OC(C)(C)C)c4ccccc4)C[C@@](O)([C@@H](OC(=O)c4ccccc4)[C@H]21)C3(C)C [Taxotere]
[2]
  log10 cells killed: 1.4
[3]
  log10 cells killed: 2.8

## N.N.[Cl][Pt][Cl] [Cisplatinum, cisplatin]
[1]; [7]
  T/C %: 0%
  Responses TFS (tumor free survivors): 0/7
[1]; cisplatin trial, days 5,12: acetocyclopropyl taxotere 30.0 mg/kg/inj IV, cisplatinum 3.1, combination 13.6 + 2.0 simult., Td = 2.5 days
  log cell kill: 2.7
[1]; cisplatin trial, days 5,12: acetocyclopropyl taxotere 30.0 mg/kg/inj IV, cisplatinum 3.1, combination 13.6 + 2.0 simult., listed as cisplatin
  Responses TFS (tumor free survivors): no tumor free survivors

## COc1cccc2c1C(=O)c1c(O)c3c(c(O)c1C2=O)C[C@@](O)(C(=O)CO)C[C@@H]3O[C@H]1C[C@H](N)[C@H](O)[C@H](C)O1 [Doxorubicin, doxorubicin]
[4]
  Responses CR (Complete Response): 3/5
  log cell kill: 3.0

## CCC1=C[C@@H]2CN(C1)Cc1c([nH]c3ccccc13)[C@@](C(=O)OC)(c1cc3c(cc1OC)N(C)[C@H]1[C@@](O)(C(=O)OC)[C@H](OC(C)=O)[C@]4(CC)C=CCN5CC[C@]31[C@@H]54)C2 [Navelbine]
[5]
  Responses TFS (tumor free survivors): 0/6
  T/C %: 0%
  log cell kill: 5.5

## O=P1(N(CCCl)CCCl)NCCCO1 (centres unmarked) [Cylcophosphamide, cyclophosphamide]
[3]
  log10 cells killed: 1.3

## O=c1[nH]cc(F)c(=O)[nH]1 [5-fluorouracil]
[2]
  log10 cells killed: 1.1
